# Data as given in ChEMBL document CHEMBL1201862, “PubChem BioAssay data set” (2004).
#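 1) Cells in 96-well plates. 2) Compound, 48 h, 5 concentrations. 3) Linear interpolation between surrounding doses. 4) Unreached endpoint = highest concentration. GI50 = concentration required for 50% inhibition of growth.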 Active and inactive are the calls of the source. No stated cut-off is given here; in the data, active = GI50 up to about 1.1 µM and inactive = higher.
# Key:
# Test in all cases: NCI-60 cell line screen, 48 h
# 786-0 = test system: 786-0
# A549 = test system: A549
# ACHN = test system: ACHN
# CAKI-1 = test system: CAKI-1
# COLO 205 = test system: COLO 205
# DLD-1 = test system: DLD-1
# DMS-114 = test system: DMS-114
# DMS-273 = test system: DMS-273
# EKVX = test system: EKVX
# HCC 2998 = test system: HCC 2998
# HCT-116 = test system: HCT-116
# HCT-15 = test system: HCT-15
# HOP-18 = test system: HOP-18
# HOP-62 = test system: HOP-62
# HOP-92 = test system: HOP-92
# HT-29 = test system: HT-29
# IGROV-1 = test system: IGROV-1
# KM-20L2 = test system: KM-20L2
# KM12 = test system: KM12
# LOX IMVI = test system: LOX IMVI
# LXFL 529 = test system: LXFL 529
# M14 = test system: M14
# M19-MEL = test system: M19-MEL
# Malme-3M = test system: Malme-3M
# NCI-H226 = test system: NCI-H226
# NCI-H23 = test system: NCI-H23
# NCI-H460 = test system: NCI-H460
# OVCAR-3 = test system: OVCAR-3
# OVCAR-4 = test system: OVCAR-4
# OVCAR-5 = test system: OVCAR-5
# OVCAR-8 = test system: OVCAR-8
# RPMI-8226 = test system: RPMI-8226
# RXF 393 = test system: RXF 393
# SF-268 = test system: SF-268
# SF-295 = test system: SF-295
# SF-539 = test system: SF-539
# SK-MEL-28 = test system: SK-MEL-28
# SK-MEL-2 = test system: SK-MEL-2
# SK-OV-3 = test system: SK-OV-3
# SN12C = test system: SN12C
# SNB-19 = test system: SNB-19
# SNB-75 = test system: SNB-75
# SNB-78 = test system: SNB-78
# SW-620 = test system: SW-620
# TK-10 = test system: TK-10
# U-251 = test system: U-251
# UACC-257 = test system: UACC-257
# UACC-62 = test system: UACC-62
# UO-31 = test system: UO-31
# XF498 = test system: XF498
# A498 = test system: A498
# CCRF-CEM = test system: CCRF-CEM
# HL-60 = test system: HL-60
# K562 = test system: K562
# MCF7 = test system: MCF7
# MOLT-4 = test system: MOLT-4
# NCI-H522 = test system: NCI-H522
# NCI/ADR-RES = test system: NCI/ADR-RES
# SK-MEL-5 = test system: SK-MEL-5
smiles,measurement,setting,value
CCOC(=O)C(=O)Nc1c(C)cccc1C,GI50,786-0,> 100 µM (inactive)
same,GI50,A549,> 100 µM (inactive)
same,GI50,ACHN,> 100 µM (inactive)
same,GI50,CAKI-1,> 100 µM (inactive)
same,GI50,COLO 205,> 100 µM (inactive)
same,GI50,DLD-1,> 100 µM (inactive)
same,GI50,DMS-114,> 100 µM (inactive)
same,GI50,DMS-273,> 100 µM (inactive)
same,GI50,EKVX,> 100 µM (inactive)
same,GI50,HCC 2998,> 100 µM (inactive)
same,GI50,HCT-116,> 100 µM (inactive)
same,GI50,HCT-15,> 100 µM
same,GI50,HOP-18,> 100 µM (inactive)
same,GI50,HOP-62,> 100 µM (inactive)
same,GI50,HOP-92,> 100 µM (inactive)
same,GI50,HT-29,> 100 µM (inactive)
same,GI50,IGROV-1,> 100 µM (inactive)
same,GI50,KM-20L2,> 100 µM (inactive)
same,GI50,KM12,> 100 µM (inactive)
same,GI50,LOX IMVI,> 100 µM (inactive)
same,GI50,LXFL 529,> 100 µM (inactive)
same,GI50,M14,> 100 µM (inactive)
same,GI50,M19-MEL,> 100 µM (inactive)
same,GI50,Malme-3M,> 100 µM (inactive)
same,GI50,NCI-H226,> 100 µM (inactive)
same,GI50,NCI-H23,> 100 µM (inactive)
same,GI50,NCI-H460,> 100 µM (inactive)
same,GI50,OVCAR-3,> 100 µM (inactive)
same,GI50,OVCAR-4,> 100 µM (inactive)
same,GI50,OVCAR-5,> 100 µM (inactive)
same,GI50,OVCAR-8,> 100 µM (inactive)
same,GI50,RPMI-8226,> 100 µM (inactive)
same,GI50,RXF 393,> 100 µM (inactive)
same,GI50,SF-268,> 100 µM (inactive)
same,GI50,SF-295,> 100 µM (inactive)
same,GI50,SF-539,> 100 µM (inactive)
same,GI50,SK-MEL-28,> 100 µM (inactive)
same,GI50,SK-MEL-2,> 100 µM (inactive)
same,GI50,SK-OV-3,> 100 µM (inactive)
same,GI50,SN12C,> 100 µM (inactive)
same,GI50,SNB-19,> 100 µM (inactive)
same,GI50,SNB-75,> 100 µM (inactive)
same,GI50,SNB-78,> 100 µM (inactive)
same,GI50,SW-620,> 100 µM (inactive)
same,GI50,TK-10,> 100 µM (inactive)
same,GI50,U-251,> 100 µM (inactive)
same,GI50,UACC-257,> 100 µM (inactive)
same,GI50,UACC-62,> 100 µM (inactive)
same,GI50,UO-31,> 100 µM (inactive)
same,GI50,XF498,> 100 µM (inactive)
CN1C(=O)c2ccccc2NC(=O)c2cnn(C)c21,GI50,A498,> 100 µM (inactive)
same,GI50,A549,> 100 µM (inactive)
same,GI50,CAKI-1,> 100 µM (inactive)
same,GI50,CCRF-CEM,> 100 µM (inactive)
same,GI50,COLO 205,> 100 µM (inactive)
same,GI50,DLD-1,> 100 µM (inactive)
same,GI50,DMS-114,> 100 µM (inactive)
same,GI50,DMS-273,> 100 µM (inactive)
same,GI50,EKVX,> 100 µM (inactive)
same,GI50,HCC 2998,> 100 µM (inactive)
same,GI50,HCT-116,> 21.6 µM (inactive)
same,GI50,HCT-15,> 100 µM
same,GI50,HL-60,> 100 µM (inactive)
same,GI50,HOP-18,> 100 µM (inactive)
same,GI50,HOP-62,> 100 µM (inactive)
same,GI50,HOP-92,> 100 µM (inactive)
same,GI50,HT-29,> 100 µM (inactive)
same,GI50,IGROV-1,> 100 µM (inactive)
same,GI50,K562,> 100 µM (inactive)
same,GI50,KM-20L2,> 100 µM (inactive)
same,GI50,KM12,> 100 µM (inactive)
same,GI50,LOX IMVI,> 100 µM (inactive)
same,GI50,M19-MEL,> 100 µM (inactive)
same,GI50,MCF7,> 100 µM (inactive)
same,GI50,MOLT-4,> 100 µM (inactive)
same,GI50,Malme-3M,> 100 µM (inactive)
same,GI50,NCI-H226,> 100 µM (inactive)
same,GI50,NCI-H23,> 100 µM (inactive)
same,GI50,NCI-H460,> 100 µM (inactive)
same,GI50,NCI-H522,> 100 µM (inactive)
same,GI50,NCI/ADR-RES,> 100 µM (inactive)
same,GI50,OVCAR-3,> 100 µM (inactive)
same,GI50,OVCAR-4,> 100 µM (inactive)
same,GI50,OVCAR-5,> 100 µM (inactive)
same,GI50,OVCAR-8,> 100 µM (inactive)
same,GI50,RPMI-8226,> 100 µM (inactive)
same,GI50,RXF 393,> 100 µM (inactive)
same,GI50,SF-268,> 100 µM (inactive)
same,GI50,SF-295,> 100 µM (inactive)
same,GI50,SF-539,> 100 µM (inactive)
same,GI50,SK-MEL-28,> 100 µM (inactive)
same,GI50,SK-MEL-2,> 100 µM (inactive)
same,GI50,SK-MEL-5,> 100 µM (inactive)
same,GI50,SK-OV-3,> 100 µM (inactive)
same,GI50,SN12C,> 100 µM (inactive)
same,GI50,SNB-19,> 100 µM (inactive)
same,GI50,SNB-75,> 100 µM (inactive)
same,GI50,SNB-78,> 100 µM (inactive)
same,GI50,SW-620,> 100 µM (inactive)
same,GI50,U-251,> 100 µM (inactive)
same,GI50,UACC-257,> 100 µM (inactive)
same,GI50,UACC-62,> 100 µM (inactive)
same,GI50,UO-31,> 100 µM (inactive)
same,GI50,XF498,> 100 µM (inactive)
